# Tested on: HCT-8 (human colon adenocarcinoma) cells
# Assay: in vitro activity against human colon adenocarcinoma (HCT-8), cell count
# Assay type: cell-based
# Settings: Homo sapiens; HCT-8 cells, 60-65 hrs with compound; molar quantity of drug required to kill 50% of the tumor cells; read-out: ID50 Molar
# Summary of the method: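 HCT-8 cells seeded at ~30,000 cells/ml in RPMI 1640 + 10% FCS, grown 48 hrs at 37°C, then exposed to compound 60-65 hrs. Lysed cells counted by Coulter counter; activity as percent of controls, reported as ID50 (molar quantity killing 50% of cells).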
structure (smiles),measurement,value
"CCN(CC)CCn1nc2c3c(c(NCCNCCO)ccc31)C(=O)c1c(O)ccc(O)c1-2 [Example 28, 2-[2-(Diethylamino)ethyl]-7,10-dihydroxy-5-[[2-[(2-hydroxyethyl)amino]ethyl]amino]anthra[1,9-cd]pyrazol-6(2H)-one]",IC50,270 nM
